{"source": "patent US20090297534A1", "about": "“Catalytic Immunoglobulins BBK32 and Uses Therefor” (priority 2005, published 2009)", "key": {"[1]": {"tested_on": "HIV neutralizing activity of CIVIG / IgA", "assay": "Inhibition of immunoglobulin-mediated HIV neutralization by electrophilic peptide", "assay_type": "cell-based, HIV-1", "conditions": "100 μM; for Effect on HIV neutralizing activity of serum IgA: 0.5 h preincubation, IgA 2 μg/ml", "procedure": "CIVIGm (FIG. 10A) and CIVGa (FIG. 10B) were incubated for 30 min with gp120 peptide-CRA (100 μM) or diluent, and the residual neutralization activity was determined as in FIG. 9 (CIVIGm, 10 μg/mL; CIVGa, 2 μg/mL).\nHIV-1 strain, 97ZA009; host cells, phytohemagglutinin-stimulated PBMCs. Abs were incubated with the virus for 24 h. Values are expressed as percent reduction of p24 concentrations in test cultures compared to cultures that received diluent instead of the Abs (means±s.d. of 4 replicates). […] IgA purified from human serum (2 μg/ml) was preincubated (0.5 h) with EP-421-433 (100 μM), control EP-VIP or diluent, and the residual HIV neutralizing activity measured as in panel A. Data are expressed relative p24 levels observed in the absence of antibody. […] HIV was preincubated with the salivary or serum IgA for 1 h and the neutralizing activity measured as in FIG. 24A.\nCovalently reactive analogs (CRAs) of polypeptides have been developed as probes for antibodies. CRAs contain an electrophilic phosphonate analog capable of irreversible binding to nucleophiles present in antibody combining sites. The covalent reaction occurs in coordination with noncovalent antigen-antibody binding, ensuring specificity, and permitting the use of peptidyl CRAs for irreversible and specific binding to the antibodies. One such peptidyl CRA reported is an analog of gp120 residues 421-433 containing the phosphonate at its C terminus (gp120 peptide CRA). This region of gp120 is a component of the superantigenic site of this protein. Neutralization of HIV-1 by CIVIGa and CIVIGm was inhibited by the gp120 peptide CRA, confirming that recognition of the gp120 superantigenic site is required for the neutralizing activity. FIGS. 10A-10B illustrate these findings. CIVIGm and CIVGa were preincubated with the gp120 peptide-CRA or diluent, and the residual neutralization activity was determined as in FIG. 9. An irrelevant peptide CRA, VIP-CRA was employed as the control reagent to rule out nonspecific effects. […]"}, "[2]": {"tested_on": "IgA catalyzed gp120 cleavage (salivary IgA, serum IgA)", "assay": "Inhibition of IgA catalyzed gp120 cleavage", "assay_type": "biochemical, human", "procedure": "Values are means of duplicates.\nFIG. 20B depicts streptavidin-peroxidase stained SDS-gel blots (reducing conditions) showing Bt-gp120 (0.1 μM) incubated in diluent (lane 1) and monoclonal IgA (80 μg/ml, from multiple myeloma subject 2582) in the absence (lane 2) or presence of Glu-Ala-Arg-AMC (lane 3; 0.2 mM). […] FIG. 20C is EP-hapten 3 which is the non-biotinylated version of EP-hapten 1.\nIn some experiments, the cleavage rate was expressed as the intensity of the 55 kD product band (in AVU, corrected for background intensity observed in reaction mixtures of gp120 incubated in diluent instead of Ab). For cleavage site determination, gp120 was incubated with IgA (pooled from subject codes 2288-2291), the IgA was removed by binding to an anti-human IgA column as described above, and the unbound fraction was lyophilized and redissolved in SDS-electrophoresis buffer containing 2-mercaptoethanol. The gp120 fragments in PVDF blots of SDS-gels were stained with Coomassie blue and subjected to N-terminal sequencing as described previously (33)."}, "IgM Yvo": {"tested_on": "IgM Yvo", "assay": "Irreversible binding of biotinylated phosphonate by IgM Yvo", "conditions": "probe 500 μM; IgM Yvo 0.1 μM"}, "IgA (serum and salivary)": {"tested_on": "IgA (serum and salivary)", "assay": "Phosphonate binding: irreversible adducts with IgA, SDS-electrophoresis, streptavidin-peroxidase", "conditions": "reducing SDS-gels after heating (100° C., 5 min)"}, "IgA": {"tested_on": "IgA", "assay_type": "biochemical, human"}, "Monoclonal IgA (ID 2582)": {"tested_on": "Monoclonal IgA (ID 2582)", "assay": "Stoichiometry / active site titration of monoclonal IgA with phosphonate", "assay_type": "biochemical, human", "conditions": "for x-intercept of residual activity (%) versus [inhibitor]/[IgA] plot: monoclonal IgA 2582 preincubated 18 h with 2.5-20 μM inhibitor, Glu-Ala-Arg-AMC 0.4 mM"}, "[3]": {"conditions": "10 μM, bleed 2, conditions as FIG. 22B"}, "[4]": {"conditions": "increasing concentrations 10-100 μM"}}, "note": "Where no end group is shown, it is not given here."}
{"molecule": "EP-VIP: VIP containing the amidinophosphonate at Lys20 side chain; control electrophilic peptide", "values": [{"measurement": "Effect on HIV neutralizing activity of serum IgA", "setting": "[1]", "result": "minimally influenced"}, {"measurement": "% inhibition of gp120 cleavage by IgAs of SP subjects 2097 and 2098", "setting": "[2]; equivalent concentration (10 μM) of control probe", "result": "< 15", "unit": "%"}]}
{"molecule": "N=C(N)c1ccc(C(NC(=O)CCCCCNC(=O)CCCC[C@@H]2SC[C@@H]3NC(=O)N[C@@H]32)P(=O)(O)O)cc1", "note": "(stereo partly shown) [hapten 2, N-(6-biotinamidohexanoyl)amino(4-amidinophenyl)methanephosphonic acid]", "values": [{"measurement": "Irreversible reaction with IgM Yvo", "setting": "IgM Yvo", "result": "does not react appreciably"}, {"measurement": "Formation of irreversible adducts with IgA", "setting": "IgA (serum and salivary)", "result": "did not inhibit IgA-catalyzed gp120 cleavage or form adducts"}]}
{"molecule": "EP-421-433: gp120 residues 421-431 with the amidinophosphonate mimetic of residues 432-433 at the C-terminus (KQIINMWQEVG; not fully specified (C-terminus); printed as Lys-Gln-Ile-Ile-Asn-Met-Trp-Gln-Glu-Val-Gly)", "values": [{"measurement": "Inhibition of HIV-1 neutralization by CIVIGa and CIVIGm", "setting": "[1]; 30 min preincubation, CIVIGm 10 μg/mL, CIVGa 2 μg/mL", "result": "inhibited"}, {"measurement": "Effect on HIV neutralizing activity of serum IgA", "setting": "[1]", "result": "inhibited the neutralizing activity"}, {"measurement": "% inhibition of gp120 cleavage by IgA of SP subject 2097", "setting": "[2]; [3]", "result": "89±6", "unit": "%"}, {"measurement": "% inhibition of gp120 cleavage by IgA of SP subject 2098", "setting": "[2]; [3]", "result": "94±12", "unit": "%"}, {"measurement": "Inhibition of cleavage of Bt-gp120 by salivary IgA", "setting": "[2]; [4]", "result": "21-85%"}, {"measurement": "Inhibition of cleavage of Bt-gp120 by serum IgA", "setting": "[2]; [4]", "result": "41-91%"}, {"measurement": "Formation of irreversible adducts with IgA", "setting": "IgA (serum and salivary)", "result": "superior irreversible binding"}]}
{"molecule": "N=C(N)c1ccc(C(NC(=O)CCCCCNC(=O)CCCC[C@@H]2SC[C@@H]3NC(=O)N[C@@H]32)P(=O)(Oc2ccccc2)Oc2ccccc2)cc1", "note": "(stereo partly shown) [1a, diphenyl N-(6-biotinamidohexanoyl)amino(4-amidinophenyl)methanephosphonate]", "values": [{"measurement": "Irreversible reaction with IgM Yvo", "setting": "IgM Yvo", "result": "reacts irreversibly"}, {"measurement": "IC50", "setting": "IgA", "result": "37 ± 1", "unit": "µM"}, {"measurement": "Inhibition of catalytic activity of serum IgA", "setting": "IgA", "result": "inhibited the catalytic activity"}, {"measurement": "Formation of irreversible adducts with IgA", "setting": "IgA (serum and salivary)", "result": "dominant ˜60 kD 1a-adduct of the heavy chain"}, {"measurement": "Formation of irreversible adducts with IgA", "setting": "IgA (serum and salivary); listed as EP-hapten 1", "result": "formed adducts"}]}
{"molecule": "N=C(N)c1ccc(C(NC(=O)OCc2ccccc2)P(=O)(Oc2ccccc2)Oc2ccccc2)cc1", "note": "(stereo not shown) [1b, diphenyl N-(benzyloxycarbonyl)amino(4-amidinophenyl)methanephosphonate]", "values": [{"measurement": "x-intercept of residual activity (%) versus [inhibitor]/[IgA] plot", "setting": "Monoclonal IgA (ID 2582)", "result": 2.5}, {"measurement": "x-intercept of residual activity (%) versus [inhibitor]/[IgA] plot", "setting": "Monoclonal IgA (ID 2582); listed as EP-hapten 3", "result": 2.4}, {"measurement": "Inhibitor needed for complete inhibition of 1 mole IgA", "setting": "Monoclonal IgA (ID 2582); monoclonal IgA, Glu-Ala-Arg-AMC substrate", "result": 2.4, "unit": "mol"}]}
